In patent US6638530B1, “Benzamide formulation with histone deacetylase inhibitor activity” (Schering Aktiengesellschaft, priority 1999, dated 2003):
Values after ≈ are worked out from the molar mass of the structure shown. Like-named read-outs stand apart in the source and are kept apart here.

Assay: Solubility of compound 1 in solvent (100 mg blended with 10 ml solvent, supernatant measured by HPLC)
Assay type: physicochemical
Conditions: for solubility thermodynamic: thermodynamic from solid, read-out: Compound 1 concentration; for solubility thermodynamic / Compound 1 concentration: room temperature
Description: After thoroughly blending 100 mg of compound 1 with 10 ml each of 0.05 N hydrochloric acid solution, methanol, ethanol, propylene carbonate, polysorbate 80, polyethylene glycol 400, polyethylene glycol 300, glycerin, dimethylacetamide or propylene glycol at room temperature, the supernatant obtained by centrifugal separation of each mixture was separated off and used as a pharmaceutical solution. Comparative control samples were also prepared by thoroughly dissolving 100 mg of compound 1 with 10 ml each of purified water, sodium acetate buffer solution at pH 4.0 or sodium phosphate buffer solution at pH 6.8 at room temperature, and separating off the supernatant obtained by centrifugal separation. […] All of the samples of the present invention contained dissolved compound 1 at a concentration of 5 mg/ml or greater, which is a sufficient concentration for an injection. On the other hand, all of the comparative control samples contained dissolved compound 1 only at a concentration of 0.2 mg/ml or less, and therefore the concentration necessary for an injection could not be guaranteed.

## Nc1ccccc1NC(=O)c1ccc(CNC(=O)OCc2cccnc2)cc1 [Compound 1]
All of the comparative control samples
  concentration of dissolved compound 1: ≤ 200 µg/mL
All of the samples of the present invention
  concentration of dissolved compound 1: ≥ 5000 µg/mL
Purified water, solvent: water, comparative control sample
  solubility thermodynamic: 40 µg/mL (≈ 106 µM)
Simulated gastric fluid, solvent: 0.05 N hydrochloric acid solution
  solubility thermodynamic: 14000 µg/mL (≈ 37200 µM)
Sodium acetate buffer solution, aqueous buffer, solvent: sodium acetate buffer, pH 4.0, comparative control sample
  solubility thermodynamic: 200 µg/mL (≈ 531 µM)
Sodium phosphate buffer solution, aqueous buffer, solvent: phosphate buffer, pH 6.8, comparative control sample
  solubility thermodynamic: 40 µg/mL (≈ 106 µM)
solvent: dimethylacetamide
  Compound 1 concentration: >100 mg/mL
solvent: ethanol
  Compound 1 concentration: 5.4 mg/mL
solvent: glycerin
  Compound 1 concentration: 10.0 mg/mL
solvent: methanol
  Compound 1 concentration: 9.9 mg/mL
solvent: polyethylene glycol 300
  Compound 1 concentration: 69.1 mg/mL
solvent: polyethylene glycol 400
  Compound 1 concentration: 77.7 mg/mL
solvent: polysorbate 80
  Compound 1 concentration: 29.9 mg/mL
solvent: propylene carbonate
  Compound 1 concentration: 17.5 mg/mL
solvent: propyleneglycol
  Compound 1 concentration: 54.6 mg/mL
